Laboratory results as given in ChEMBL document CHEMBL1149262, “Monoamine transporter binding, locomotor activity, and drug discrimination properties of 3-(4-substituted-phenyl)tropane-2-carboxylic acid methyl ester isomers” (J Med Chem, 2004).
Active and inactive are the calls of the source. The rule behind the calls is not given here.

What was measured:
Mus musculus [1] = assay: Activity in CD1 mouse assessed as slight or intermittent hyperactivity at 10 mg/kg, ip after 4 hrs; assay type: functional, organism-based; set-up: dose 10 mg/kg
Mus musculus [2] = assay: Locomotor activity in CD1 mouse assessed as stimulation at 0.1 mg/kg, ip after 3 hrs relative to control; assay type: functional; conditions: route intraperitoneal
Mus musculus [3] = assay: Locomotor activity in ip dosed CD1 mouse after 1 hr relative to cocaine; assay type: functional
Mus musculus [4] = assay: Locomotor activity in CD1 mouse assessed as stimulation at 3 mg/kg, ip after 3 hrs relative to control; assay type: functional; conditions: route intraperitoneal
Mus musculus [5] = assay: Locomotor activity in CD1 mouse assessed as stimulation at 1 mg/kg, ip after 4 hrs relative to control; assay type: functional; conditions: route intraperitoneal
Mus musculus [6] = assay: Locomotor activity in CD1 mouse assessed as stimulation at 1 mg/kg, ip after 3 hrs relative to control; assay type: functional; conditions: route intraperitoneal
Mus musculus [7] = assay: Activity in CD1 mouse assessed as stereotypy at 1 mg/kg, ip after 4 hrs; assay type: functional, organism-based; set-up: dose 1 mg/kg
Rattus norvegicus [8] = assay: Drug discrimination effect in CD Albino rat assessed as percent of rat choosing cocaine lever at 0.1 mg/kg, ip; assay type: functional; conditions: route intraperitoneal
Mus musculus [9] = assay: Activity in CD1 mouse assessed as slight or intermittent hyperactivity at 100 mg/kg, ip after 4 hrs; assay type: functional, organism-based; set-up: dose 100 mg/kg
[10] = molecular target: Sodium-dependent dopamine transporter (Homo sapiens, UniProt Q01959); assay: Displacement of [3H]WIN-35428 from DAT
Mus musculus [11] = assay: Locomotor activity in CD1 mouse assessed as stimulation at 0.3 mg/kg, ip after 4 hrs relative to control; assay type: functional; conditions: route intraperitoneal
Mus musculus [12] = assay: Locomotor activity in CD1 mouse assessed as stimulation at 3 mg/kg, ip after 4 hrs relative to control; assay type: functional; conditions: route intraperitoneal
[13] = molecular target: Sodium-dependent noradrenaline transporter (Homo sapiens, UniProt P23975); assay: Displacement of [3H]nisoxetine from NET
Mus musculus [14] = assay: Locomotor activity in CD1 mouse assessed as stimulation at 0.3 mg/kg, ip after 1 hr relative to control; assay type: functional; conditions: route intraperitoneal
Mus musculus [15] = assay: Locomotor activity in CD1 mouse assessed as stimulation at 0.1 mg/kg, ip after 2 hrs relative to control; assay type: functional; conditions: route intraperitoneal
Mus musculus [16] = assay: Activity in CD1 mouse assessed as stereotypy at 100 mg/kg, ip after 4 hrs; assay type: functional, organism-based; set-up: dose 100 mg/kg
Rattus norvegicus [17] = assay: Drug discrimination effect in CD Albino rat assessed as percent of rat choosing cocaine lever at 0.3 mg/kg, ip; assay type: functional; conditions: route intraperitoneal
Mus musculus [18] = assay: Activity in CD1 mouse assessed as stereotypy at 10 mg/kg, ip after 4 hrs; assay type: functional, organism-based; set-up: dose 10 mg/kg
Mus musculus [19] = assay: Activity in CD1 mouse assessed as circling at 1 mg/kg, ip after 4 hrs; assay type: functional, organism-based; set-up: dose 1 mg/kg
Mus musculus [20] = assay: Activity in CD1 mouse assessed as hind limb splay at 100 mg/kg, ip after 4 hrs; assay type: functional, organism-based; set-up: dose 100 mg/kg; conditions: Hindlimb
Mus musculus [21] = assay: Locomotor activity in CD1 mouse assessed as stimulation at 3 mg/kg, ip after 2 hrs relative to control; assay type: functional; conditions: route intraperitoneal
Mus musculus [22] = assay: Activity in CD1 mouse assessed as hyperactivity at 1 mg/kg, ip after 4 hrs; assay type: functional, organism-based; set-up: dose 1 mg/kg
Mus musculus [23] = assay: Locomotor activity in CD1 mouse assessed as stimulation at 0.3 mg/kg, ip after 3 hrs relative to control; assay type: functional; conditions: route intraperitoneal
Mus musculus [24] = assay: Locomotor activity in CD1 mouse assessed as stimulation at 1 mg/kg, ip after 1 hr relative to control; assay type: functional; conditions: route intraperitoneal
Mus musculus [25] = assay: Locomotor activity in CD1 mouse assessed as stimulation at 1 mg/kg, ip after 2 hrs relative to control; assay type: functional; conditions: route intraperitoneal
Mus musculus [26] = assay: Activity in CD1 mouse assessed as death at 100 mg/kg, ip after 4 hrs; assay type: functional, organism-based; set-up: dose 100 mg/kg
Rattus norvegicus [27] = assay: Drug discrimination effect in CD Albino rat assessed as percent of rat choosing cocaine lever at 0.17 mg/kg, ip; assay type: functional; conditions: route intraperitoneal
Rattus norvegicus [28] = assay: Cocaine discrimination in ip dosed CD Albino rat; assay type: functional
Mus musculus [29] = assay: Locomotor activity in CD1 mouse assessed as stimulation at 3 mg/kg, ip after 1 hr relative to control; assay type: functional; conditions: route intraperitoneal
Mus musculus [30] = assay: Locomotor activity in CD1 mouse assessed as stimulation at 0.3 mg/kg, ip after 2 hrs relative to control; assay type: functional; conditions: route intraperitoneal
Mus musculus [31] = assay: Locomotor activity in CD1 mouse assessed as stimulation at 0.1 mg/kg, ip after 1 hr relative to control; assay type: functional; conditions: route intraperitoneal
Mus musculus [32] = assay: Activity in CD1 mouse assessed as circling at 10 mg/kg, ip after 4 hrs; assay type: functional, organism-based; set-up: dose 10 mg/kg
[33] = molecular target: Sodium-dependent serotonin transporter (Homo sapiens, UniProt P31645)
Description: Displacement of [3H]paroxetine from 5HTT

Mus musculus [34] = assay: Locomotor activity in CD1 mouse assessed as stimulation at 0.1 mg/kg, ip after 4 hrs relative to control; assay type: functional; conditions: route intraperitoneal
Mus musculus [35] = assay: Locomotor activity in ip dosed CD1 mouse in peak hour; assay type: functional

Sodium-dependent noradrenaline transporter, sequence (P23975 whole entry): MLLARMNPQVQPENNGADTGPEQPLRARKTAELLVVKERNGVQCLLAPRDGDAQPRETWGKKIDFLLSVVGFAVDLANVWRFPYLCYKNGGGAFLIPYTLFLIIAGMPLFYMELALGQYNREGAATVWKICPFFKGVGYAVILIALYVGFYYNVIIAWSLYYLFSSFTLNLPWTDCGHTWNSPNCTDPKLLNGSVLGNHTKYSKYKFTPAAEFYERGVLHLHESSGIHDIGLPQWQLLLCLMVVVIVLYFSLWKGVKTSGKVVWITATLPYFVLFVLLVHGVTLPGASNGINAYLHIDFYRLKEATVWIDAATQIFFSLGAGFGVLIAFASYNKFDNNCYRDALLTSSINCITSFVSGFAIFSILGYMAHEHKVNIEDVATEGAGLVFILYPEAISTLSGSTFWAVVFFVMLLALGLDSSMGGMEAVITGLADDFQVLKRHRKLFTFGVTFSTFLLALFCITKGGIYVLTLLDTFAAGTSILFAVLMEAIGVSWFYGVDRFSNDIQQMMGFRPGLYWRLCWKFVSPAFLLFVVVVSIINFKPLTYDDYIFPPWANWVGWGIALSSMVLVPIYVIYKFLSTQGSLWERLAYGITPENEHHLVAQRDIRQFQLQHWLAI
Sodium-dependent dopamine transporter, sequence (Q01959 whole entry): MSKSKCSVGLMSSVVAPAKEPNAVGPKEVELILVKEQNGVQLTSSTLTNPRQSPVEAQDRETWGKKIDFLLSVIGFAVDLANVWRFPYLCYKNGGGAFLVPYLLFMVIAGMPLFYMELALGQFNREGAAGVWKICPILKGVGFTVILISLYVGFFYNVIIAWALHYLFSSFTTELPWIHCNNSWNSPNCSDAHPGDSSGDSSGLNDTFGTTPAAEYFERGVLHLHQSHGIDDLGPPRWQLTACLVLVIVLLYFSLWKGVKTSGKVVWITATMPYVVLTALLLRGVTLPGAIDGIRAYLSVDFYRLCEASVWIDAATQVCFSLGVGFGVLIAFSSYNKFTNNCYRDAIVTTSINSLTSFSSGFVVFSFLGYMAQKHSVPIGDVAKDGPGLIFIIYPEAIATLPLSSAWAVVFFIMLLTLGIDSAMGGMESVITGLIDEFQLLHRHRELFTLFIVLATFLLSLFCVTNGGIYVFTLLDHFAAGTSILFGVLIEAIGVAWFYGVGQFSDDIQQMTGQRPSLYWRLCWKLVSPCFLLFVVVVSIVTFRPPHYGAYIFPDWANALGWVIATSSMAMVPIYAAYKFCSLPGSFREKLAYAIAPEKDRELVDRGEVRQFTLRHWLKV
Sodium-dependent serotonin transporter, sequence (P31645 whole entry): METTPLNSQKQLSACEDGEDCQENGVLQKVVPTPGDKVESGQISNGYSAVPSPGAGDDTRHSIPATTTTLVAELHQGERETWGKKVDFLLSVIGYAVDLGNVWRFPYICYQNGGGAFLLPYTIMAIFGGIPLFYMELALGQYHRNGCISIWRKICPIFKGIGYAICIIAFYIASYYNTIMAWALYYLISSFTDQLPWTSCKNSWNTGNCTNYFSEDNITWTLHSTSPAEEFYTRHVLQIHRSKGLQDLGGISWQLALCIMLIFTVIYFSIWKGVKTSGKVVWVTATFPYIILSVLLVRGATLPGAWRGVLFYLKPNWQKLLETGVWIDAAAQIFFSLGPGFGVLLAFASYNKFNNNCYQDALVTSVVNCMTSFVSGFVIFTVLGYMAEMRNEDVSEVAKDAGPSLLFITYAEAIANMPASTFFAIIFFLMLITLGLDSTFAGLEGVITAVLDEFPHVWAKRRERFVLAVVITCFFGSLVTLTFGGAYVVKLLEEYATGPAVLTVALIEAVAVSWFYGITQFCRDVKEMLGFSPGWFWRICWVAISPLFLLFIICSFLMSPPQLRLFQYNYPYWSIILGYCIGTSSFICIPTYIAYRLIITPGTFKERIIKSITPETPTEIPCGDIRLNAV

Question: How did the Activity (Mus musculus [1]) turn out when COC(=O)[C@@H]1C2CC[C@H](C[C@@H]1c1ccc(I)cc1)N2C was run?
Answer: The Activity was “Active”.

Question: What about the Activity (Mus musculus [2]) of the same compound?
Answer: Its Activity is -25%.

Question: And the Ratio (Mus musculus [3])?
Answer: Its Ratio is 4.4.

Question: And the Activity (Mus musculus [4])?
Answer: The Activity was 327%.

Question: And the Activity (Mus musculus [5])?
Answer: Its Activity is 2546%.

Question: What about the Activity (Mus musculus [6]) of the same compound?
Answer: Its Activity is 2099%.

Question: What about the Activity (Mus musculus [7]) of the same compound?
Answer: The Activity was “Active”.

Question: And the Activity (Rattus norvegicus [8])?
Answer: The Activity was 22%.

Question: What about the Activity (Mus musculus [9]) of the same compound?
Answer: Its Activity is “Active”.

Question: What about the IC50 [10] of the same compound?
Answer: The IC50 was 0.0013 µM.

Question: And the Activity (Mus musculus [11])?
Answer: Its Activity is 900%.

Question: And the Activity (Mus musculus [12])?
Answer: The Activity was 794%.

Question: What about the IC50 [13] of the same compound?
Answer: The IC50 was 0.036 µM.

Question: What about the Ki [13] of the same compound?
Answer: Its Ki is 0.022 µM.

Question: What about the Activity (Mus musculus [14]) of the same compound?
Answer: The Activity was 415%.

Question: And the Activity (Mus musculus [15])?
Answer: Its Activity is 38%.

Question: And the Activity (Mus musculus [16])?
Answer: Its Activity is “Active”.

Question: And the Activity (Rattus norvegicus [17])?
Answer: The Activity was 100%.

Question: What about the Activity (Mus musculus [18]) of the same compound?
Answer: The Activity was “Active”.

Question: And the Activity (Mus musculus [19])?
Answer: The Activity was “Active”.

Question: And the Activity (Mus musculus [20])?
Answer: The Activity was “Active”.

Question: What about the Activity (Mus musculus [21]) of the same compound?
Answer: Its Activity is 145%.

Question: What about the Activity (Mus musculus [22]) of the same compound?
Answer: Its Activity is “Active”.

Question: What about the Activity (Mus musculus [23]) of the same compound?
Answer: The Activity was 1289%.

Question: And the Activity (Mus musculus [24])?
Answer: The Activity was 1489%.

Question: And the Activity (Mus musculus [25])?
Answer: Its Activity is 1721%.

Question: And the Activity (Mus musculus [26])?
Answer: The Activity was “Active”.

Question: What about the Activity (Rattus norvegicus [27]) of the same compound?
Answer: Its Activity is 25%.

Question: And the ED50 (Rattus norvegicus [28])?
Answer: Its ED50 is 0.2 mg/kg.

Question: And the Activity (Mus musculus [29])?
Answer: Its Activity is 770%.

Question: What about the Activity (Mus musculus [30]) of the same compound?
Answer: The Activity was 1765%.

Question: And the Activity (Mus musculus [31])?
Answer: Its Activity is -12%.

Question: What about the Activity (Mus musculus [32]) of the same compound?
Answer: Its Activity is “Active”.

Question: What about the Ki [33] of the same compound?
Answer: The Ki was 0.00038 µM.

Question: And the Activity (Mus musculus [34])?
Answer: Its Activity is 62%.

Question: What about the ED50 (Mus musculus [35]) of the same compound?
Answer: The ED50 was 0.4 mg/kg.
